Data: patent publication US20070026080A1, “Manufacturing process for tigecycline” (Wyeth, priority 2005, published 2007)

Assay: Strength and degradation profile of tigecycline 20 mg/mL bulk solutions by reversed phase HPLC (effect of temperature, time, pH, dissolved oxygen; Runs A to O)
Assay type: physicochemical
Experimental: The contents of the sample vials are dissolved in diluent. The sample solution is diluted, if necessary, and chromatographed on a reversed phase column using gradient elution. Impurities are determined by comparing the impurity peak areas in the sample preparation chromatogram to the average area of tigecycline peaks in the standard preparation chromatograms obtained concomitantly.
Chromatographic Column—Length about 15 cm, inside diameter about 4.6 mm, packed with Inertsil ODS2, 5 μm size particles or equivalent.
Detector—Ultraviolet spectrophotometric detector capable of operating at 248 nm with a sensitivity of about 0.5 absorbance units full scale.
The results of additional studies to investigate the effect of processing parameters such as temperature, time, and dissolved oxygen content on the purity profile of tigecycline solutions using the following materials, methods and procedures are presented in Tables A to O.
The experiments were run in plastic glove bags under normal laboratory light conditions. Plastic glove boxes will be used to control the headspace of the beakers. The batch size was 200 mL. • 1. Prepare the glove bag with a mixture of nitrogen and air to achieve an oxygen level in the solution as per the design. • 2. Place the jacketed beaker on the magnetic stirrer. Connect it to the cooler. Set the cooler to the desired set point. • 3. Add 200 mL of SWFI in to the beaker. Allow equilibrating. Measure the temperature and oxygen content. When it reaches the desired condition, add accurately weighed API and mix until dissolved. If necessary use spatula to aid dissolution. For pH adjustments, use 4 mL of either 0.1N NaOH or 0.1N HCl and 196 mL of WFI for manufacture. • 4. After complete dissolution, Transfer about 5.5 mL of Solution in vials and stopper them. These vials will be stoppered at the appropriate headspace conditions. Place the vials in appropriate temperature conditions. • 5. Sample the vials at 1, 4, 8, 10, 12 and 24 hours. Send the samples for analysis. Freeze the 10, 12 and 24 samples at −20° C. for analysis the following day. • 6. Measure pH and record color of the solution at each time point. Results
The 1-hour samples were taken directly from the beakers. Samples for later time points were collected in stoppered vials processed in the atmosphere of the bag in order to simulate the headspace conditions then placed in water baths or refrigerator to maintain there respective temperature conditions. This was done to maintain safety in the lab. Disposable plastic glove bags require constant flow of a mixture of nitrogen and air to maintain headspace oxygen level that will result in the desired dissolved oxygen (DO) content in the sample. The pH of samples was measured at each sample points.
Strength and degradation profile was analyzed by HPLC as described above. […] Degradation was slightly higher at higher temperature condition.

[1] = Run #N, 8° C., pH 8.2, Oxygen = 0.1 mg/L, 4 Hrs
[2] = Run #N, 8° C., pH 8.2, Oxygen = 0.1 mg/L, 8 Hrs
[3] = Run #N, 8° C., pH 8.2, Oxygen = 0.1 mg/L, 12 Hrs
[4] = Run #N, 8° C., pH 8.2, Oxygen = 0.1 mg/L, 24 Hrs
[5] = Run #O, 20 mg/mL, 5° C., Oxygen = 0.1 mg/mL, hours 1,4,8,12,24 at r7-r11, time 1 h
[6] = Run #O, 20 mg/mL, 5° C., Oxygen = 0.1 mg/mL, hours 1,4,8,12,24 at r7-r11, time 4 h
[7] = Run #O, 20 mg/mL, 5° C., Oxygen = 0.1 mg/mL, hours 1,4,8,12,24 at r7-r11, time 8 h
[8] = Run #O, 20 mg/mL, 5° C., Oxygen = 0.1 mg/mL, hours 1,4,8,12,24 at r7-r11, time 12 h
[9] = Run #O, 20 mg/mL, 5° C., Oxygen = 0.1 mg/mL, hours 1,4,8,12,24 at r7-r11, time 24 h

CN(C)c1cc(NC(=O)CNC(C)(C)C)c(O)c2c1C[C@H]1C[C@H]3[C@H](N(C)C)C(O)=C(C(N)=O)C(=O)[C@@]3(O)C(O)=C1C2=O [Tigecycline]
RRT 0.78 MW = 557 [1]: BRL (BRL means below reporting limit (meaning less than 0.05% of tigecycline peak)) | RRT 1.12 [1]: BRL (BRL means below reporting limit (meaning less than 0.05% of tigecycline peak)) | RRT 1.45 [1]: 0.07% | RRT 1.58 [1]: BRL (BRL means below reporting limit (meaning less than 0.05% of tigecycline peak)) | RRT 1.64 Mino [1]: 0.10% | RRT 1.67 MW = 556 [1]: BRL (BRL means below reporting limit (meaning less than 0.05% of tigecycline peak)) | RRT 1.85 MW = 597 [1]: 0.09% | Strength [1]: 19.378 mg/mL | Total [1]: 0.54% | RRT 0.12 MW = 633 [2]: BRL (BRL means below reporting limit (meaning less than 0.05% of tigecycline peak)) | RRT 0.23 MW = 572 [2]: BRL (BRL means below reporting limit (meaning less than 0.05% of tigecycline peak)) | RRT 0.50 MW = 601 [2]: BRL (BRL means below reporting limit (meaning less than 0.05% of tigecycline peak)) | RRT 0.55 MW = 583 [2]: BRL (BRL means below reporting limit (meaning less than 0.05% of tigecycline peak)) | RRT 0.58 [2]: 0.07% | RRT 0.64 9-Amino [2]: BRL (BRL means below reporting limit (meaning less than 0.05% of tigecycline peak)) | RRT 0.74 Epimer [2]: 0.22% | RRT 0.76 [2]: BRL (BRL means below reporting limit (meaning less than 0.05% of tigecycline peak)) | RRT 0.78 MW = 557 [2]: BRL (BRL means below reporting limit (meaning less than 0.05% of tigecycline peak)) | RRT 1.12 [2]: BRL (BRL means below reporting limit (meaning less than 0.05% of tigecycline peak)) | RRT 1.45 [2]: 0.08% | RRT 1.58 [2]: BRL (BRL means below reporting limit (meaning less than 0.05% of tigecycline peak)) | RRT 1.64 Mino [2]: 0.08% | RRT 1.67 MW = 556 [2]: BRL (BRL means below reporting limit (meaning less than 0.05% of tigecycline peak)) | RRT 1.85 MW = 597 [2]: 0.08% | Strength [2]: 19.275 mg/mL | Total [2]: 0.53% | RRT 0.12 MW = 633 [3]: BRL (BRL means below reporting limit (meaning less than 0.05% of tigecycline peak)) | RRT 0.23 MW = 572 [3]: BRL (BRL means below reporting limit (meaning less than 0.05% of tigecycline peak)) | RRT 0.50 MW = 601 [3]: BRL (BRL means below reporting limit (meaning less than 0.05% of tigecycline peak)) | RRT 0.55 MW = 583 [3]: 0.07% | RRT 0.58 [3]: 0.06% | RRT 0.64 9-Amino [3]: BRL (BRL means below reporting limit (meaning less than 0.05% of tigecycline peak)) | RRT 0.74 Epimer [3]: 0.31% | RRT 0.76 [3]: BRL (BRL means below reporting limit (meaning less than 0.05% of tigecycline peak)) | RRT 0.78 MW = 557 [3]: BRL (BRL means below reporting limit (meaning less than 0.05% of tigecycline peak)) | RRT 1.12 [3]: BRL (BRL means below reporting limit (meaning less than 0.05% of tigecycline peak)) | RRT 1.45 [3]: 0.08% | RRT 1.58 [3]: 0.05% | RRT 1.64 Mino [3]: 0.11% | RRT 1.67 MW = 556 [3]: 0.07% | RRT 1.85 MW = 597 [3]: 0.08% | Strength [3]: 19.382 mg/mL | Total [3]: 0.83% | RRT 0.12 MW = 633 [4]: BRL (BRL means below reporting limit (meaning less than 0.05% of tigecycline peak)) | RRT 0.23 MW = 572 [4]: BRL (BRL means below reporting limit (meaning less than 0.05% of tigecycline peak)) | RRT 0.50 MW = 601 [4]: BRL (BRL means below reporting limit (meaning less than 0.05% of tigecycline peak)) | RRT 0.55 MW = 583 [4]: BRL (BRL means below reporting limit (meaning less than 0.05% of tigecycline peak)) | RRT 0.58 [4]: 0.06% | RRT 0.64 9-Amino [4]: BRL (BRL means below reporting limit (meaning less than 0.05% of tigecycline peak)) | RRT 0.74 Epimer [4]: 0.31% | RRT 0.76 [4]: BRL (BRL means below reporting limit (meaning less than 0.05% of tigecycline peak)) | RRT 0.78 MW = 557 [4]: BRL (BRL means below reporting limit (meaning less than 0.05% of tigecycline peak)) | RRT 1.12 [4]: BRL (BRL means below reporting limit (meaning less than 0.05% of tigecycline peak)) | RRT 1.45 [4]: 0.10% | RRT 1.58 [4]: 0.05% | RRT 1.64 Mino [4]: 0.13% | RRT 1.67 MW = 556 [4]: 0.07% | RRT 1.85 MW = 597 [4]: 0.11% | Strength [4]: 19.211 mg/mL | Total [4]: 0.82% | RRT 0.74 Epimer [5]: 0.21% | RRT 1.85 MW = 597 [5]: 0.08% | Strength [5]: 18.777 mg/mL | RRT 0.58 [6]: 0.09% | RRT 0.74 Epimer [6]: 0.23% | Strength [6]: 18.971 mg/mL | Total [6]: 0.53% | RRT 1.45 [7]: 0.09% | RRT 1.64 Mino [7]: 0.06% | RRT 1.85 MW = 597 [7]: 0.09% | Strength [7]: 19.051 mg/mL | RRT 0.58 [8]: 0.07% | RRT 0.74 Epimer [8]: 0.24% | RRT 1.45 [8]: 0.07% | RRT 1.64 Mino [8]: 0.08% | RRT 1.85 MW = 597 [8]: 0.10% | Strength [8]: 18.722 mg/mL | Total [8]: 0.55% | RRT 0.74 Epimer [9]: 0.25% | RRT 1.64 Mino [9]: 0.11% | RRT 1.85 MW = 597 [9]: 0.06% | Strength [9]: 19.238 mg/mL | Total [9]: 0.56% | effect of pH on the degradation of tigecycline bulk solution (range of pH (7.7-8.2) studied): did not have any significant effect | degradation (when oxygen is removed from the process and the temperature is controlled): very little degradation is seen
